Experimental data from ChEMBL document CHEMBL4387741, “Optimization of novel reversible Bruton's tyrosine kinase inhibitors identified using Tethering-fragment-based screens” (Bioorg Med Chem, 2019).

Key:
[1] = biological target: Activin receptor type-1 (Homo sapiens) (UniProt Q04771); test: Inhibition of wild-type human ACVR1 (C188 to C509 residues) expressed in bacterial expression system at 1 uM by Kinomescan method relative to control
[2] = biological target: Serine/threonine-protein kinase BRSK1 (Homo sapiens) (UniProt Q8TDC3); test: Inhibition of wild-type human partial length BRSK1 (M1 to E754 residues) expressed in bacterial expression system at 1 uM by Kinomescan method relative to control
[3] = biological target: Serine/threonine-protein kinase Chk1 (Homo sapiens) (UniProt O14757); test: Inhibition of wild-type human partial length CHEK1 (M1 to G289 residues) expressed in bacterial expression system at 1 uM by Kinomescan method relative to control
[4] = test system: Receptor-type tyrosine-protein kinase FLT3 (Homo sapiens), P36888 [UNDEFINED MUTATION]; test: Inhibition of human partial length FLT3 ITD/D835V double mutant expressed in bacterial expression system at 1 uM by Kinomescan method relative to control
[5] = biological target: Serine/threonine-protein kinase mTOR (Homo sapiens) (UniProt P42345); test: Inhibition of wild-type human partial length MTOR (L1382 to W2549 residues) expressed in mammalian expression system at 1 uM by Kinomescan method relative to control
[6] = biological target: Serine/threonine-protein kinase PAK 2 (Homo sapiens) (UniProt Q13177); test: Inhibition of wild-type human partial length PAK2 (P151 to R525 residues) expressed in bacterial expression system at 1 uM by Kinomescan method relative to control
[7] = biological target: Phosphatidylinositol 4-phosphate 5-kinase type-1 alpha (Homo sapiens) (UniProt Q99755); test: Inhibition of wild-type human full length PIP5K1A (M1 to H562 residues) expressed in bacterial expression system at 1 uM by Kinomescan method relative to control
[8] = biological target: Serine/threonine-protein kinase PLK2 (Homo sapiens) (UniProt Q9NYY3); test: Inhibition of wild-type human partial length PLK2 (H58 to F354 residues) expressed in mammalian expression system at 1 uM by Kinomescan method relative to control
[9] = biological target: Serine/threonine-protein kinase D2 (Homo sapiens) (UniProt Q9BZL6); test: Inhibition of wild-type human partial length PRKD2 (A519 to E838 residues) expressed in bacterial expression system at 1 uM by Kinomescan method relative to control
[10] = biological target: Serine/threonine-protein kinase PRP4 homolog (Homo sapiens) (UniProt Q13523); test: Inhibition of wild-type human partial length PRP4 (D657 to I1007 residues) expressed in bacterial expression system at 1 uM by Kinomescan method relative to control
[11] = biological target: Ribosomal protein S6 kinase alpha-2 (Homo sapiens) (UniProt Q15349); test: Inhibition of wild-type human partial length C-terminal RSK3 kinase domain 2 (V403 to K700 residues) expressed in bacterial expression system at 1 uM by Kinomescan method relative to control
[12] = biological target: SRSF protein kinase 3 (Homo sapiens) (UniProt Q9UPE1); test: Inhibition of wild-type human partial length SRPK3 (P41 to P567 residues) expressed in bacterial expression system at 1 uM by Kinomescan method relative to control
[13] = biological target: Serine/threonine-protein kinase tousled-like 1 (Homo sapiens) (UniProt Q9UKI8); test: Inhibition of wild-type human partial length TLK1 (K447 to A754 residues) expressed in bacterial expression system at 1 uM by Kinomescan method relative to control
[14] = Oral bioavailability in Sprague-Dawley rat using amorphous solid form of compound; type: ADME, organism-based; conditions: in vivo
[15] = biological target: RAC-alpha serine/threonine-protein kinase (Homo sapiens) (UniProt P31749); test: Inhibition of wild-type human partial length AKT1 expressed in bacterial expression system at 10 uM by Kinomescan method relative to control
[16] = biological target: Serine/threonine-protein kinase BRSK2 (Homo sapiens) (UniProt Q8IWQ3); test: Inhibition of wild-type human full length BRSK2 (M1 to L674 residues) expressed in bacterial expression system at 10 uM by Kinomescan method relative to control
[17] = biological target: Cyclin-dependent kinase 3 (Homo sapiens) (UniProt Q00526); test: Inhibition of wild-type human full length CDK3 (M1 to H305 residues) expressed in bacterial expression system at 10 uM by Kinomescan method relative to control
[18] = biological target: Ephrin type-A receptor 1 (Homo sapiens) (UniProt P21709); test: Inhibition of wild-type human partial length EPHA1 (V588 to I913 residues) expressed in bacterial expression system at 10 uM by Kinomescan method relative to control
[19] = biological target: Ephrin type-B receptor 6 (Homo sapiens) (UniProt O15197); test: Inhibition of wild-type human partial length EPHB6 (Q634 to P948 residues) expressed in mammalian expression system at 10 uM by Kinomescan method relative to control
[20] = biological target: Mitogen-activated protein kinase 7 (Homo sapiens) (UniProt Q13164); test: Inhibition of wild-type human partial length ERK5 (M1 to A409 residues) expressed in bacterial expression system at 10 uM by Kinomescan method relative to control
[21] = biological target: Tyrosine-protein kinase Fes/Fps (Homo sapiens) (UniProt P07332); test: Inhibition of wild-type human partial length FES (I527 to R822 residues) expressed in bacterial expression system at 10 uM by Kinomescan method relative to control
[22] = biological target: Fibroblast growth factor receptor 3 (Homo sapiens) (UniProt P22607); test: Inhibition of wild-type human partial length FGFR3 (R442 to S771 residues) expressed in bacterial expression system at 10 uM by Kinomescan method relative to control
[23] = biological target: Mitogen-activated protein kinase 9 (Homo sapiens) (UniProt P45984); test: Inhibition of wild-type human full length JNK2 (M1 to Q382 residues) expressed in mammalian expression system at 10 uM by Kinomescan method relative to control
[24] = biological target: Mitogen-activated protein kinase kinase kinase 14 (Homo sapiens) (UniProt Q99558); test: Inhibition of wild-type human partial length NIK (L318 to P947 residues) expressed in mammalian expression system at 10 uM by Kinomescan method relative to control
[25] = biological target: Serine/threonine-protein kinase RIO2 (Homo sapiens) (UniProt Q9BVS4); test: Inhibition of wild-type human partial length RIOK2 (M1 to D313 residues) expressed in mammalian expression system at 10 uM by Kinomescan method relative to control
[26] = biological target: Ribosomal protein S6 kinase alpha-2 (Homo sapiens) (UniProt Q15349); test: Inhibition of wild-type human partial length N-terminal RSK3 kinase domain 1 (M1 to Q385 residues) expressed in bacterial expression system at 10 uM by Kinomescan method relative to control
[27] = biological target: SRSF protein kinase 2 (Homo sapiens) (UniProt P78362); test: Inhibition of wild-type human full length SRPK2 (M1 to S686 residues) expressed in bacterial expression system at 10 uM by Kinomescan method relative to control
[28] = biological target: TGF-beta receptor type-1 (Homo sapiens) (UniProt P36897); test: Inhibition of wild-type human partial length TGFBR1 (D179 to M503 residues) expressed in bacterial expression system at 10 uM by Kinomescan method relative to control

Chain of Ribosomal protein S6 kinase alpha-2 (Homo sapiens) (Q15349 whole entry, the tested form may be a part): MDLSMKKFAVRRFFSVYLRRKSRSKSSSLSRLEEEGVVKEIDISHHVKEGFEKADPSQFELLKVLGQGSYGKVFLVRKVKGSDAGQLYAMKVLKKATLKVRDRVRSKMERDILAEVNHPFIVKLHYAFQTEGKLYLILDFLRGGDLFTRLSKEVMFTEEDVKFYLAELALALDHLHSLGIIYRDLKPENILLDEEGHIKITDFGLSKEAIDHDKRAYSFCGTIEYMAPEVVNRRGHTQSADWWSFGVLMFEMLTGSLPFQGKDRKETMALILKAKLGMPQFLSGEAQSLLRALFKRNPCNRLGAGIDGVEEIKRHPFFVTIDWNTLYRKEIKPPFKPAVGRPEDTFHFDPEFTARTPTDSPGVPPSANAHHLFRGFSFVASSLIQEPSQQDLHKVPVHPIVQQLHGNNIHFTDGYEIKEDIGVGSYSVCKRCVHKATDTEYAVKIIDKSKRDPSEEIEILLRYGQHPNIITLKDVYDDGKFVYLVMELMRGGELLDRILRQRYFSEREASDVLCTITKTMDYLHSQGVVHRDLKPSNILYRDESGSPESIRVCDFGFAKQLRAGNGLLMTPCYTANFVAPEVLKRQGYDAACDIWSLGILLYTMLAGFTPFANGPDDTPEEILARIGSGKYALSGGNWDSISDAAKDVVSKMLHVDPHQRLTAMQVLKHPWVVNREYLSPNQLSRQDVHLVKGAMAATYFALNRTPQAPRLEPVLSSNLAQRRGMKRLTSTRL
Chain of Mitogen-activated protein kinase 7 (Homo sapiens) (Q13164 2-816 limits assumed): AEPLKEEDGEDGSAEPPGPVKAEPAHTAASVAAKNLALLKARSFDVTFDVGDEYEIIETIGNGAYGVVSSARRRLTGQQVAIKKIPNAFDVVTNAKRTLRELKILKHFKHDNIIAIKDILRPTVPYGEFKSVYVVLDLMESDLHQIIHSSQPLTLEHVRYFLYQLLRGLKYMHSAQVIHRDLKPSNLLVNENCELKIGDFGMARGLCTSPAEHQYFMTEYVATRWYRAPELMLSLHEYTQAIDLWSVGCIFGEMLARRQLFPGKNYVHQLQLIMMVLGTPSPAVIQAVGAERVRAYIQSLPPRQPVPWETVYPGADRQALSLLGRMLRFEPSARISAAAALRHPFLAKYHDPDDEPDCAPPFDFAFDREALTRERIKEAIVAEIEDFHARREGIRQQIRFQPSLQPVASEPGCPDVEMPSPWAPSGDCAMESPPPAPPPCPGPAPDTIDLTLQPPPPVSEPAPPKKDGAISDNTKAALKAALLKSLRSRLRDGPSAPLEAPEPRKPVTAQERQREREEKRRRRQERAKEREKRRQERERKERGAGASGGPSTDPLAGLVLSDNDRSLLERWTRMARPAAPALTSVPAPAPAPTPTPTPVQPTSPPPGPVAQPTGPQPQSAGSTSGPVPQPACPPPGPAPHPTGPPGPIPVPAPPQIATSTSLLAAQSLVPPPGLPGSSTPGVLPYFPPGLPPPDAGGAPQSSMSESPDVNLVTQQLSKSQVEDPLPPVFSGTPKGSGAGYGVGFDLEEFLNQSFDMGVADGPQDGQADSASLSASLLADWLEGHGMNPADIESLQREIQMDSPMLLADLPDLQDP
Chain of Fibroblast growth factor receptor 3 (Homo sapiens) (P22607 23-806 limits assumed): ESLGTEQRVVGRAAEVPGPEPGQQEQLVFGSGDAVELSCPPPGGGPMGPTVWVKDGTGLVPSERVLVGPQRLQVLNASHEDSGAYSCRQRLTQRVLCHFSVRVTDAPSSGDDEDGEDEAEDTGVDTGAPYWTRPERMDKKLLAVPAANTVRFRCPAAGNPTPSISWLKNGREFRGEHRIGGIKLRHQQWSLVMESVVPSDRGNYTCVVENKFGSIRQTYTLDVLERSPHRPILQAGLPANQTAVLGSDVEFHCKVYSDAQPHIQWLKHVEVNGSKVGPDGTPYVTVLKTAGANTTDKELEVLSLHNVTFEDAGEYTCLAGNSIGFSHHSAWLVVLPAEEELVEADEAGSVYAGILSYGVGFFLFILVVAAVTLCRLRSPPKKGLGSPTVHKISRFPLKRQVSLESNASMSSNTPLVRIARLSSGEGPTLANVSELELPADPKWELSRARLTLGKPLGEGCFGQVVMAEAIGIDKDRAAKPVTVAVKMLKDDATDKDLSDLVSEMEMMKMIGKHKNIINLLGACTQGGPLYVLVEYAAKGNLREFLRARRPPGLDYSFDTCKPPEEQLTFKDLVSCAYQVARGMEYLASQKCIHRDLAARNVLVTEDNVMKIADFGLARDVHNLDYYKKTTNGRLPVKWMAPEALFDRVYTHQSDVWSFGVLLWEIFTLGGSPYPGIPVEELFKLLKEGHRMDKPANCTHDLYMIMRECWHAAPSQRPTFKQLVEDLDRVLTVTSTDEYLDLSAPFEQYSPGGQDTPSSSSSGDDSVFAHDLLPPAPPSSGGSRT
Chain of Mitogen-activated protein kinase 9 (Homo sapiens) (P45984 whole entry, looked up, the tested form may be a part): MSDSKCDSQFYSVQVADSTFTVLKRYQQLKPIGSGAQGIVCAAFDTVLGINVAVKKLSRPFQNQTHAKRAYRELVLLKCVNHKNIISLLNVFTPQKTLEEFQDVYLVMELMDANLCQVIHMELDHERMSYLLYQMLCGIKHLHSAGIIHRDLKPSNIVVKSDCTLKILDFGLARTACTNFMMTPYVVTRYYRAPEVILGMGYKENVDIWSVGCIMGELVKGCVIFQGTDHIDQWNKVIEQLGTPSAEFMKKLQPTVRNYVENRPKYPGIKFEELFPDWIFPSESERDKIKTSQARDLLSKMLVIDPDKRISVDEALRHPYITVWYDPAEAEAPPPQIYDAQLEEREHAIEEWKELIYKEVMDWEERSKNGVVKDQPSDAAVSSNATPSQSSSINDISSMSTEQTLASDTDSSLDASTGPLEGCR
Chain of Mitogen-activated protein kinase kinase kinase 14 (Homo sapiens) (Q99558 whole entry, looked up, the tested form may be a part): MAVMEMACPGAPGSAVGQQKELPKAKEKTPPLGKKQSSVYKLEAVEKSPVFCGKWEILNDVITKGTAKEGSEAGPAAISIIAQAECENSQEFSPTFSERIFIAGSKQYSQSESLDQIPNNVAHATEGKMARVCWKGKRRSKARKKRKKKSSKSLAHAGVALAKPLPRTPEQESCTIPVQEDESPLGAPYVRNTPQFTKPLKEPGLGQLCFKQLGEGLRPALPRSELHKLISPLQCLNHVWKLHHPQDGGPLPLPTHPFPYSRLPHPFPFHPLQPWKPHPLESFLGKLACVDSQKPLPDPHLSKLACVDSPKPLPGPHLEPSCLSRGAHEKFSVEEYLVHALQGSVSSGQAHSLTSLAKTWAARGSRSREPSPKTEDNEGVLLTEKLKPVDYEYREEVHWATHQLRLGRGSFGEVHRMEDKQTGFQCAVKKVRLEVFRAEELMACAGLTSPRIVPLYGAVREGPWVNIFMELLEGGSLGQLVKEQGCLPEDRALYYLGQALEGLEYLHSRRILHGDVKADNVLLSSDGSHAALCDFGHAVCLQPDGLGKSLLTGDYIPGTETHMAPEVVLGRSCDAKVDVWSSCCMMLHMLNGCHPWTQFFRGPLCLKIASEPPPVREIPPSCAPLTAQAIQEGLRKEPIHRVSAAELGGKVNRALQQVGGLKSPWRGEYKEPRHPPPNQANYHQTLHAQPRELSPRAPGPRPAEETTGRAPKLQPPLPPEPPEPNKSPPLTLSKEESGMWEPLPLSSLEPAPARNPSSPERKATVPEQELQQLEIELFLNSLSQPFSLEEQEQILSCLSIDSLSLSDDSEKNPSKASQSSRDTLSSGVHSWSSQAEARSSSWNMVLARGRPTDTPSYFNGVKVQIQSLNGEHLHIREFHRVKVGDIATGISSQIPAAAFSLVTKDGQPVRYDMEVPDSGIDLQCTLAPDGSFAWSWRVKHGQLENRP
Chain of Serine/threonine-protein kinase BRSK1 (Homo sapiens) (Q8TDC3 whole entry, the tested form may be a part): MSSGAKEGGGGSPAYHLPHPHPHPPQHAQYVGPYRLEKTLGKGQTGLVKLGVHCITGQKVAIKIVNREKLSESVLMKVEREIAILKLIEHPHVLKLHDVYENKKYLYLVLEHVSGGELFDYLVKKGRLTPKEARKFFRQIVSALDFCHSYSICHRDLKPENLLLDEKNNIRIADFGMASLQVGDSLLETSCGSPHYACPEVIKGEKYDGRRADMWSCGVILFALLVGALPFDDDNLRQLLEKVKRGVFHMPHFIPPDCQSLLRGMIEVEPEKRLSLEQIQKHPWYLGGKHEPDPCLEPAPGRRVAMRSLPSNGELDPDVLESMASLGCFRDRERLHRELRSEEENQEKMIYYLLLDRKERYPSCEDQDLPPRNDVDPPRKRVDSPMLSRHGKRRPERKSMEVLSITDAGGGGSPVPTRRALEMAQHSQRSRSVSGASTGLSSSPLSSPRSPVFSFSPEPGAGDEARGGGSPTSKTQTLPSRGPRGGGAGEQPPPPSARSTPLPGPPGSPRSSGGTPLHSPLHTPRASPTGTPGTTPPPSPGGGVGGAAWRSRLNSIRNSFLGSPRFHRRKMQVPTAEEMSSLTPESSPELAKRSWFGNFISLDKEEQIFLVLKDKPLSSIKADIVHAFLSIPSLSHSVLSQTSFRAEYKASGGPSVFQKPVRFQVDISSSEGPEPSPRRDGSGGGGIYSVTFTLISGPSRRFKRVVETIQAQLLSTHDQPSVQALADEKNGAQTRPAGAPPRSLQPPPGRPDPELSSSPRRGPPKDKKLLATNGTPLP
Chain of Serine/threonine-protein kinase PAK 2 (Homo sapiens) (Q13177 whole entry, the tested form may be a part): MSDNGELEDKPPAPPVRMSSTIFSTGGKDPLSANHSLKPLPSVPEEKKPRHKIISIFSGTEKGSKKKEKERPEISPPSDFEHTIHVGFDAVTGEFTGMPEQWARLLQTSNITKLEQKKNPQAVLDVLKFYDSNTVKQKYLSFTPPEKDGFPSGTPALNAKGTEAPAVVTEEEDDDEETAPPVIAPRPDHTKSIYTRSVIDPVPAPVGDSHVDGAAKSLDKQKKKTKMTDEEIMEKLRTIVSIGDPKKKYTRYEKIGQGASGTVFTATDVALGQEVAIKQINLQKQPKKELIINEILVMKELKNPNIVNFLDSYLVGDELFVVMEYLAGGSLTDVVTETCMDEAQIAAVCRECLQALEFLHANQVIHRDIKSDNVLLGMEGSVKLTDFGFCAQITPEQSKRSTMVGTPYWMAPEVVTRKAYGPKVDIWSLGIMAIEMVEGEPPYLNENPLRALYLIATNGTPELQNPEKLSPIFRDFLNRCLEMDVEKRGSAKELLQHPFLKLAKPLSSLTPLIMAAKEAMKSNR

In the case of `O=C(Nc1cccc([C@@H]2CN(c3ncnc4[nH]ccc34)CCN2CCO)c1)Nc1c(F)cccc1N1CCCC1`, the inhibition [1] is reported as 100%, the inhibition [2] is reported as 100% and the inhibition [3] is reported as 99%. For the same molecule, the inhibition [4] was 3.5%, the inhibition [5] was 96% and the inhibition [6] was 87%. For the same molecule, the inhibition [7] was 76%, the inhibition [8] was 87% and the inhibition [9] was 98%. It also gave an inhibition [10] of 92%, an inhibition [11] of 97% and an inhibition [12] of 68%. It also gave an inhibition [13] of 100% and a bioavailability [14] of 12%.
Molecule `O=C(Nc1cccc([C@H]2CCCN(c3ncnc4[nH]ccc34)C2)c1)Nc1ccccc1N1CCCC1` has an inhibition [15] of 100%, an inhibition [16] of 92% and an inhibition [17] of 86%. For the same molecule, the inhibition [18] was 89%, the inhibition [19] was 8.6% and the inhibition [20] was 100%. The inhibition [21] was 99%, the inhibition [22] was 46% and the inhibition [23] was 81%. It also gave an inhibition [24] of 75%, an inhibition [25] of 72% and an inhibition [26] of 78%. It also gave an inhibition [27] of 53% and an inhibition [28] of 96%.
